What all share (format): cell-based, human
Experiment [1] has as its system interaction of CT45 with heterochromatin-associated PP4. Put plainly: ChIP-MS of V5-tagged CT45 ± carboplatin. Particulars: OVCAR5-V5-CT45 ± carboplatin. The protocol:
For chromatin immunoprecipitation coupled to mass spectrometry (ChIP-MS), freshly harvested cells were crosslinked with 1% formaldehyde for 10 min in PBS. Cells were lysed in IP Buffer (50 mM Tris-HCl (pH 8), 100 mM NaCl, 5 mM EDTA (pH 8), 0.3% SDS, 1.7% Triton-X-100, supplemented with EDTA-free protease inhibitor cocktail (Roche) and phosphatase inhibitor cocktail (Roche)) and chromatin sonicated to an average size of 200-400 bp. 1 mg of total cell lysate was incubated with 3 μg of respective antibody overnight at 4° C. under constant rotation. The next day, 30 μl of protein G-coupled agarose beads (Cell signaling technology) were added and incubated for 3 h at 4° C. under constant rotation. Antibody-bait complexes were then washed three times with low salt wash buffer (50 mM HEPES pH 7.5, 140 mM NaCl, 1% Triton), once with high salt wash buffer (50 mM HEPES pH 7.5, 500 mM NaCl, 1% Triton) and twice with TBS. Elution was carried out by a partial on-bead digest as recently described. Peptides were finally desalted with C18 StageTips prior to MS analysis.

A further experiment has as its system OVCAR5-V5-CT45 cells. The experiment in a line: Nuclear size (DAPI). Particulars: cells expressing CT45, day 5, carboplatin 5 μM. The method, then: FIG. 13A-I. CT45 interferes with chromatin dynamics after DNA damage. A, Western blot analysis of OVCAR5 and OVKATE cell line pairs treated with carboplatin (5 μM). Day 3. B, Immunofluorescence staining of KAP1-S824 γH2AX and DAPI in OVCAR5-V5 and OVCAR5-V5-CT45 cell line pair with or without carboplatin treatment (5 μM) at day 3, 5, and 7. Data are means+/−s.e.m. of 5 independent replicates (right panel). Representative cells are shown left. C, CT45 positive 59M cells were collected and processed for a chromatin segregation assay as detailed in the Methods. PP4 complex members, KAP1, and HDAC2 were detected by western blot. D, Volcano plot of chromatin-immunoprecipitation mass spectrometry (ChIP-MS) results for the V5-tag in OVCAR5-V5-CT45 vs. OVCAR5-V5 cell line. Fold enrichment of V5-tagged CT45 over control cell line (V5 tag alone) is plotted against the t-test p-value (−log10). Dashed lines indicate significance thresholds (FDR<0.01, s0=2). […] Most significant pathways are ranked by enrichment false-discovery rate. F, Fold change in nuclear sizes of OVCAR5-V5-CT45 and OVCAR5-V5 cells at day 5 with carboplatin (5 μM) treatment normalized to untreated cells. Representative DAPI images are shown in upper panel. Bar plots represent nuclear sizes from 5 independent experiments. Scale ar=[…]. Data are means+/−s.e.m. […]

Experiment [2] relates to OVCAR5 CT45 expressing cells. The experiment in a line: Proliferation with increasing concentrations of carboplatin. The settings on record: CT45 expressing cells treated with carboplatin. The method, then:
FIG. 8A-B. CT45 sensitizes cancer cells to carboplatin. a, Western blot of CT45 expression in ovarian cancer cell lines transduced with a CT45A5 lentivirus. b, Proliferation of OVCAR5 control (V5) or CT45 expressing cells with increasing concentrations of carboplatin.
FIG. 19A-F. CT45 sensitizes cancer cells to carboplatin. a, MTT of SKOV3ip1 cells with or without 500 nM DAC treated with increasing doses of carboplatin. Cells were pretreated with 500 nM DAC for 72 hr then cultured for 4 days and treated with carboplatin on day 7. The MTT was performed after 72 hr with carboplatin treatment. b, Western blot of CT45 expression in ovarian cancer cell lines transduced with a CT45A5 lentivirus. c, Proliferation of OVCAR5 control (V5) or CT45 expressing cells with increasing concentrations of carboplatin. d, Cell cycle analysis of OVCAR5 control (V5) or CT45 expressing cells stained with propidium iodide. e, Clonogenic survival assay of the ovarian cancer cell line OVKATE stably overexpressing CT45 or control. Dots represent mean values from three independent experiments. Error bars show s.e.m. for each group. f, Interaction proteomics screen in the ovarian cancer cell line COV318 stably over-expressing V5-tagged CT45. Protein enrichment (t-test difference) is calculated over the corresponding control cell line (V5 tag alone) and plotted against the t-test p-value (−log10). […]

A further experiment deals with 59M cells. The experiment in a line: Colony assay of carboplatin treated 59M cells with siRNA. Particulars: cells deficient in PP4 or expressing CT45. The source says:
FIG. 23. Cell deficient in PP4 or expressing the endogenous PP4 inhibitor CT45 are hypersensitive to carboplatin treatment. Shown are colony assay results of carboplatin treated 59M cells transfected with a control siRNA, PP4C siRNA or CT45 siRNA. Colony numbers are normalized to untreated cells of each siRNA.

Entries after “also recorded” stand apart in the source; their conditions may differ.

As for `N.N.O=C([O-])C1(C(=O)[O-])CCC1.[Pt+2]` [carboplatin], the “interaction of CT45 with heterochromatin-associated PP4” value in experiment [1] is given as “not affected”. For the same molecule, the nuclear size entry in the experiment on OVCAR5-V5-CT45 cells is listed as “larger nuclei”. In addition, in experiment [2], the proliferation entry was “significantly reduced; also recorded: reduced proliferation”. The “sensitivity of colony formation to carboplatin” value in the experiment on 59M cells is “hypersensitive”.

Source of the values: patent publication US12173042B2, “Methods of treating cancers with CT45 targeted therapies” (The University of Chicago, priority 2016, dated 2024).
